Data reported in US20180168208A1 (priority 2014, published 2018).
Like-named read-outs stand apart in the source and are kept apart here.

Target: T1R1/T1R3 receptor (Felis catus, UniProt E3UMS2)
Assay: cell-based
Assay type: cell-based
Source text: HEK293 cells that stably express T1R3 and inducibly express T1R1 were exposed to transmembrane compounds alone or in combination with one or more amino acids and/or one or more nucleotides to activate the umami receptor. Activation of the T1R1/T1R3 receptor was detected by a change in intracellular calcium levels using a calcium sensitive fluorescent dye. Cells that express T1R3 but not T1R1 were used as a control. A FLIPR® Tetra or a FlexStation® 3 was used for data capture.
In each experiment, serial dilutions of up to 10 mM of the transmembrane compound were added to the T1R1/T1R3-expressing cells.

[1] = + Alanine, Table 17, read-out: EC50 + Alanine
[2] = +Alanine (20 mM), Table 18, read-out: EC50 +Alanine
[3] = EC50 + IMP, + IMP (0.2 mM), Table 17
[4] = EC50 +Alanine + IMP, +Alanine (20 mM) + IMP (0.2 mM), Table 18
[5] = EC50 +IMP, +IMP (0.2 mM), Table 18
[6] = compound alone in buffer, Table 17, read-out: EC50 + buffer (alone)
[7] = compound alone in buffer, Table 18, read-out: EC50 +buffer (alone)

Row | SMILES | Thres +Alanine (+ Alanine (20 nM), Table 17) [mM] | Max resp % of IMP + Alanine (+ Alanine, Table 17) | Max resp ΔF/F +Alanine (+ Alanine, Table 17) | EC50 [1] [µM] | Max resp % of ALa + IMP (+ IMP (0.2 mM), Table 17) | Thres + IMP (+ IMP (0.2 mM), Table 17) [mM] | Max resp ΔF/F +Alanine (+Alanine (20 mM), Table 18) | Thres +Alanine (+Alanine (20 mM), Table 18) [mM] | EC50 [2] [µM] | Max resp % of Ala +IMP (+IMP (0.2 mM), Table 18) | Max resp ΔF/F +IMP (+IMP (0.2 mM), Table 18) | EC50 [3] [µM] | EC50 [4] [µM] | EC50 [5] [µM] | EC50 [6] [µM] | EC50 [7] [µM] | other results
1 | O=C(Nc1ccccc1Br)N[C@@H]1c2ccccc2C[C@@H]1O (stereo in doubt) [1-(2-bromophenyl)-3-((1R,2S)-2-hydroxy-2,3-dihydro-1H-inden-1-yl)urea] | 3 | 33.0 % of IMP | 0.3 | > 3000 | 44.9 % of ALa | 3 | 0.3 | 3 | > 3000 | 44.9 % of Ala | 0.378 | > 3000 | > 3000 | > 3000 | > 3000 | > 3000 | –
2 | O=C(CN1C(=O)C(=O)N(Cc2ccccc2)C1=O)c1ccccc1 [1-benzyl-3-(2-oxo-2-phenylethyl)imidazolidine-2,4,5-trione] | 1 | 127.6 % of IMP | 1.3 | – | 135.7 % of ALa | 0.08 | 1.3 | 1 | – | 135.7 % of Ala | 1.140 | – | – | – | – | – | –
3 | CSc1ccc(-c2nnn(Cc3ccccn3)n2)cc1 [2-((5-(4-(methylthio)phenyl)-2H-tetrazol-2-yl)methyl)pyridine] | – | – | – | – | 80.7 % of ALa | 0.1575 | – | – | – | 80.7 % of Ala | 0.678 | 630 | 270 | 630 | – | – | –
4 | CCC(CC)NC(=O)c1ccc(OC)c(OC)c1 [3,4-dimethoxy-N-(pentan-3-yl)benzamide] | 0.3 | 43.9 % of IMP | 0.545 | > 10000 | 81.0 % of ALa | 0.5 | 0.545 | 0.3 | > 10000 | 81.0 % of Ala | 0.9975 | 2000 | > 3000 | 2000 | > 10000 | > 10000 | –
5 | CCC(CC)NC(=O)c1ccc(C)c(C)c1 [3,4-dimethyl-N-(pentan-3-yl)benzamide] | 3 | 97.8 % of IMP | 1.2150 | > 3000 | 125.7 % of ALa | 0.525 | 1.2150 | 3 | > 3000 | 125.7 % of Ala | 1.5475 | 2100 | 1700 | 2100 | > 3000 | > 3000 | –
6 | COc1ccc(C(=O)NC(C)c2ccccc2)cc1C (stereo not drawn) [4-methoxy-3-methyl-N-(1-phenylethyl)benzamide] | 3 | 41.0 % of IMP | 0.51 | > 3000 | 95.6 % of ALa | 0.35 | 0.51 | 3 | > 3000 | 95.6 % of Ala | 1.1775 | 1400 | 1200 | 1400 | > 3000 | > 3000 | –
7 | CCCC(C)NC(=O)c1ccc(OC)c(C)c1 (stereo not drawn) [4-methoxy-3-methyl-N-(pentan-2-yl)benzamide] | 0.050 | 126.0 % of IMP | 1.5650 | – | 128.9 % of ALa | 0.025 | 1.5650 | 0.050 | 200 | 128.9 % of Ala | 1.5875 | 100 | 30 | 100 | 400 | 400 | EC50 (read-out: EC50 + Alanine): 200 µM
8 | CCC(CC)NC(=O)c1ccc(Br)o1 [5-bromo-N-(pentan-3-yl)furan-2-carboxamide] | 1 | 126.8 % of IMP | 1.575 | > 3000 | 149.6 % of ALa | 0.3 | 1.575 | 1 | > 3000 | 149.6 % of Ala | 1.8425 | > 1000 | > 1000 | > 1000 | > 3000 | > 3000 | –
9 | COc1ccc(/C=C/C(=O)NC2CCCCC2C)cc1 (stereo not drawn) [(E)-3-(4-methoxyphenyl)-N-(2-methylcyclohexyl) acrylamide] | 3 | 63.2 % of IMP | 0.785 | > 10000 | 144.0 % of ALa | 0.3 | 0.785 | 3 | > 10000 | 144.0 % of Ala | 1.7725 | > 3000 | > 3000 | > 3000 | > 10000 | > 10000 | –
10 | CCC(CC)NC(=O)/C=C/c1ccc(OC)cc1 [(E)-3-(4-methoxyphenyl)-N-(pentan-3-yl)acrylamide] | 0.148 | 64.1 % of IMP | 0.7 | – | 171.7 % of ALa | 0.0375 | 0.7 | 0.148 | 590 | 171.7 % of Ala | 1.443 | 150 | 80 | 150 | 450 | 450 | EC50: 80 ± 10 µM; EC50 (EC50 + Alanine + IMP, + Alanine (20 mM) + IMP (0.2 mM), Table 17): 80 µM; EC50 (EC50 - with IMP (0.2 mM), with 0.2 mM IMP): 150 ± 20 µM; EC50 (alone in buffer, read-out: EC50 - alone): 450 ± 10 µM; EC50 (read-out: EC50 + Alanine): 590 µM
11 | COC(=O)C(NC(=O)/C=C/c1cccs1)C(C)C (stereo not drawn) [(E)-methyl 3-methyl-2-(3-(thiophen-2-yl)acrylamido)butanoate] | 10 | 9.5 % of IMP | 0.1175 | – | 59.9 % of ALa | 1 | 0.1175 | 10 | – | 59.9 % of Ala | 0.7375 | > 10000 | > 10000 | > 10000 | – | – | –
12 | O=C(NCCc1ccccc1)C(=O)NCc1cccnc1 [N1-phenethyl-N2-(pyridin-3-ylmethyl)oxalamide] | 1 | 30.2 % of IMP | 0.3750 | > 1000 | 61.9 % of ALa | 0.1 | 0.3750 | 1 | > 1000 | 61.9 % of Ala | 0.7625 | > 300 | 200 | > 300 | > 1000 | > 1000 | –
13 | CC1CCCC(NC(=O)c2ccc3c(c2)OCO3)C1C (stereo not drawn) [N-(2,3-dimethylcyclohexyl) benzo[d][1,3]dioxole-5-carboxamide] | 3 | 18.1 % of IMP | 0.225 | – | 95.4 % of ALa | 0.275 | 0.225 | 3 | > 3000 | 95.4 % of Ala | 1.175 | 1100 | 600 | 1100 | 2000 | 2000 | EC50 (read-out: EC50 + Alanine): > 3000 µM
14 | COc1cc(C(=O)NC(C(N)=O)c2ccccc2)cc(Cl)c1OC (stereo not drawn) [N-(2-amino-2-oxo-1-phenylethyl)-3-chloro-4,5-dimethoxybenzamide] | – | – | – | – | 49.4 % of ALa | 0.17 | – | – | – | 49.4 % of Ala | 0.415 | 680 | 750 | 680 | – | – | activation of T1R1/T1R3 by the compound alone (in words): failed to activate T1R1/T1R3 alone
15 | CCCC(CCC)C(=O)Nc1ccc2c(c1)OCO2 [N-(benzo[d][1,3]dioxol-5-yl)-2-propylpentanamide] | – | – | – | – | 108.0 % of ALa | 0.0675 | – | – | – | 108.0 % of Ala | 0.908 | 270 | 90 | 270 | 350 | 350 | activation of T1R1/T1R3 by the compound alone (in words): agonist of T1R1/T1R3 alone
